Substitutions are numbered along the chain they refer to.
Assays:
[1] = system: MV4-11 human acute myeloid leukemia cell with FLT3-ITD mutation; assay: MV4-11 cell proliferation assay (CellTiter 96); format: cell-based; details: Homo sapiens, MV4-11, 72 h, MV4-11 cells, 72 hours treatment, CellTiter96; read-out: anti-proliferation activity MV4-11 (FLT3-ITD), IC50 ranking
Procedure: (§1) Inhibitions of cell growths by compounds were measured using CellTiter™-96 assay. The cytotoxicities of compounds of the invention were evaluated in cell line panels with different signaling pathway dependencies, including MV4-11 human acute myeloid leukemia cell with FLT3-ITD mutation, Molm-14 human acute myeloid leukemia cell with FLT3-ITD mutation, THP-1 human acute monocytic leukemia cell with NRAS G12D mutation, A375 melanoma cell with BRAF V600E mutation, and HCC827 NSCLC cell with EGFR exon 19 deletion mutation.
The compounds disclosed herein were tested in MV4-11 cell proliferation assay to determine their cellular potencies against FLT3 signal pathway dependent cell growths. MV4-11 cells are human acute myeloid leukemia (AML) cells harboring ligand-independent FLT3-ITD activating mutation, which renders the abnormal proliferation of AML cells FLT3 signaling pathway dependent. Inhibition of FLT3 kinase activity will result in reduced growths and/or cell deaths. MV4-11 cells (catalog #CRL-9591) were obtained from the American Type Culture Collection (ATCC, Manassas, VA). Briefly, cells were grown in IMDM medium supplemented with 10% heat inactivated fetal bovine serum and incubated at 37° C. in 5% CO2 atmosphere. Cells were allowed to expand until reaching saturation, at which point they were sub-cultured or harvested for assay use.
(§2) MV4-11, Molm-14, THP-1, A375, and HCC827 cells were seeded into 96-well plates at 6500, 25000, 5000, 2000 and 8000 cells/well, respectively, and incubated at 37° C., 5% CO2 overnight. Then, these seeded cells were treated with increasing concentrations of the test compounds and incubated for another 72 hours. At the end of the incubation, CellTiter96® AQueous One Solution Reagent (Promega, […]) was added and incubated for the additional 2˜4 hours. Cell viability was determined by measuring absorbance at 490 nm using EMax® microplate reader (Molecular Devices, San Jose, CA, USA).

[2] = system: Molm-14 human acute myeloid leukemia cell with FLT3-ITD mutation; assay: Molm-14 cell proliferation assay (CellTiter 96); format: cell-based; details: Homo sapiens; Molm-14 cells, 72 hours treatment, CellTiter96; read-out: anti-proliferation activity Molm-14 (FLT3-ITD), IC50 ranking
Procedure: as §1
The compounds disclosed herein were tested in Molm-14 cell proliferation assay to determine their cellular potencies against FLT3 signal pathway dependent cell growths. Molm-14 cells are human acute myeloid leukemia (AML) cells harboring ligand-independent FLT3-ITD activating mutation, which renders the abnormal proliferation of the AML cells FLT3 signaling pathway dependent. Inhibition of FLT3 kinase activity will result in reduced growths and/or cell deaths. […] Briefly, cells were grown in RPMI 1640 medium supplemented with 10% heat inactivated fetal bovine serum and incubated at 37° C. in 5% CO2 atmosphere. Cells were allowed to expand until reaching saturation, at which point they were sub-cultured or harvested for assay use.
as §2

[3] = system: THP-1 human acute monocytic leukemia cell with NRAS G12D mutation; assay: THP-1 cell proliferation assay (counter screen); format: cell-based; details: Homo sapiens, THP-1 cells, 72 hours treatment, CellTiter96, read-out: anti-proliferation activity THP-1 NRAS N12D, IC50 ranking
Procedure: as §1
THP-1 cells are human acute monocytic leukemia cells with NRAS G12D mutation, which renders the cell growth independent of class III RTKs signaling. THP-1 cells (catalog #TIB-202) were obtained from the ATCC. Briefly, cells were grown in RPMI 1640 medium supplemented with 10% heat inactivated fetal bovine serum and 0.05 mM 2-mercaptoethanol and incubated at 37° C. in 5% CO2 atmosphere. Cells were allowed to expand until reaching saturation, at which point they were sub-cultured or harvested for assay use.
as §2

[4] = system: A375 melanoma cell with BRAF V600E mutation; assay: A375 cell proliferation assay (counter screen); format: cell-based, human; details: Homo sapiens, A-375, A375 cells, 72 hours treatment, CellTiter96, read-out: anti-proliferation activity A375 BRAF V600E, IC50 ranking
Procedure: as §1
(§3) A375 cells are melanoma cells encoding BRFA V600E mutation, which renders the cell growth dependent on BRAF signaling instead of class III RTKs signaling. A375 cells (catalog #CRL-1619) were obtained from the ATCC. Briefly, cells were cultured in DMEM containing 10% FBS and incubated at 37° C. in 5% CO2 atmosphere. Cells were allowed to expand until reaching saturation, at which point they were sub-cultured or harvested for assay use.
as §2

[5] = system: HCC827 NSCLC cell with EGFR exon 19 deletion mutation; assay: HCC827 cell proliferation assay (counter screen); format: cell-based, human; details: Homo sapiens, HCC827 cells, 72 hours treatment, CellTiter96, read-out: anti-proliferation activity HCC827 EGFR Exon19 del, IC50 ranking
Procedure: as §1
as §3, with “HCC827” for “A375”, “non-small cell lung carcinoma (NSCLC)” for “melanoma”, “EGFR exon 19 deletion” for “BRFA V600E”, “EGFR” for “BRAF”, “#CRL-2868)” for “#CRL-1619)”, “RPMI1640 medium supplemented with” for “DMEM containing”
as §2

FLT3 kinase = target: T1, FLT3 kinase (Homo sapiens, UniProt P36888); assay: FLT3 kinase assay (AlphaScreen); format: biochemical; details: mean; read-out: Biochemical activity (Mean IC50, nM) FLT3
T1 construct: purchased SignalChem
T1 sequence (P36888 27-993): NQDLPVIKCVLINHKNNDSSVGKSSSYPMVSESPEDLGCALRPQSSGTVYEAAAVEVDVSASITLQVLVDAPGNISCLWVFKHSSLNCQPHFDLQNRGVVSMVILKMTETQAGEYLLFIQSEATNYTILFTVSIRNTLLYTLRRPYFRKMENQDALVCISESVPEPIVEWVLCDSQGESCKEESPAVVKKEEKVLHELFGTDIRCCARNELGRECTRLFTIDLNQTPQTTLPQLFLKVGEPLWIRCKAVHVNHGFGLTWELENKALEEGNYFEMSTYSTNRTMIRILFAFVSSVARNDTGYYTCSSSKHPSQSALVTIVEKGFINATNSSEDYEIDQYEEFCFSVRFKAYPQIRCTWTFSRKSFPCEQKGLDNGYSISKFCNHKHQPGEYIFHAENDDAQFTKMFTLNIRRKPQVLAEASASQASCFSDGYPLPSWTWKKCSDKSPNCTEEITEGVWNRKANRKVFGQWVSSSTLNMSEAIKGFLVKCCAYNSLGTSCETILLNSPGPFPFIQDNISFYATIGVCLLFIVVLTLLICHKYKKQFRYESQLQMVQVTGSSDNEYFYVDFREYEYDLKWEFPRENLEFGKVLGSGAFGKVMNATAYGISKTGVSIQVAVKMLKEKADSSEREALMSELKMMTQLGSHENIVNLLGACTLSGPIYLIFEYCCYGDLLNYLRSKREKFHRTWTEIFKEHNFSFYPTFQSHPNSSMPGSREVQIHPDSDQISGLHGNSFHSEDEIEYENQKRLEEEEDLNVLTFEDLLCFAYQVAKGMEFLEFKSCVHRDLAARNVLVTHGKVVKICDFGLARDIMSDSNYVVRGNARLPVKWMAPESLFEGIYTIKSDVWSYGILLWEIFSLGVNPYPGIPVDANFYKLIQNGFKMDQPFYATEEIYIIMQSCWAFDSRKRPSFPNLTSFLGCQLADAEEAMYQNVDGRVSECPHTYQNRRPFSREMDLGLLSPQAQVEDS
Procedure: (§4) Inhibition of FLT3 kinase activity by a test compound disclosed herein was estimated by AlphaScreen (PerkinElmer, Akron, Ohio, USA). Standard assay conditions were 1.5 ng of recombinant FLT3 kinase (SignalChem, Richmond, BC, Canada) with 6 ng Biotin-conjugated Poly-(Glu 4: Tyr 1) (Cisbio, Bedford, MA, USA) in the assay buffer (10 μM ATP, 10 mM MOPs, pH7.0, 0.21 mM EDTA, 0.5% glycerol, 1 mg/mL BSA, 0.01% 2-mercaptoethanol, 0.001% Brij35, 10 mM MgCl2) in a final volume of 25 μL. Reactions were incubated at 30° C. for 30 min and stopped by adding 5 μL of 50 mM EDTA. Analysis of resulting product using an AlphaScreen kit and counted with Enspire Alpha (PerkinElmer, Waltham, MA, USA). […] The IC50 values of inhibitors were determined after carrying out assays with each compound at serially diluted concentrations in duplication. The results were analyzed using linear regression software (GraphPad Prism 5; GraphPad Software Inc.)

FLT3-D835Y mutant kinase = target: T2, FLT3-D835Y mutant kinase (Homo sapiens, UniProt P36888, D835Y); assay: FLT3-D835Y mutant kinase assay (AlphaScreen); format: biochemical; details: mean; read-out: Biochemical activity (Mean IC50, nM) FLT3-D835Y
T2 construct: purchased SignalChem
T2 sequence (P36888 27-993 D835Y): T1 sequence (P36888 27-993) with D809Y
Procedure: as §4, with “FLT3-D835Y mutant” for “FLT3”, “(PerkinElmer).” for “(PerkinElmer, Akron, Ohio, USA).”, “1” for “1.5”, “(SignalChem)” for “(SignalChem, Richmond, BC, Canada)”, “(Cisbio)” for “(Cisbio, Bedford, MA, USA)”, “(PerkinElmer).” for “(PerkinElmer, Waltham, MA, USA).”

Compound | IC50 [1] | IC50 [2] | IC50 [3] | IC50 [4] | IC50 [5] | IC50 (FLT3 kinase) | IC50 (FLT3-D835Y mutant kinase)
Cn1ncc2ccc(-c3n[nH]c4c3Cc3sc(-c5ccc(CN6CCOCC6)cn5)cc3-4)cc21 [Compound 55, 4-((6-(3-(1-methyl-1H-indazol-6-yl)-1,4-dihydro-thieno[2′,3′:4,5]cyclopenta [1,2-c]pyrazol-6-yl)pyridin-3-yl)methyl) morpholine] | < 30 nM | < 30 nM | > 10000 nM | > 10000 nM | > 10000 nM |  | 
COc1ccc(-c2n[nH]c3c2Cc2sc(-c4ccc(N)nc4)cc2-3)cc1 [Example H, 5-(3-(4-methoxyphenyl)-1,4-dihydrothieno[2′,3′:4,5]cyclopenta[1,2-c]pyrazol-6-yl)pyridin-2-amine, reference compound] |  |  |  |  |  | 8 nM | 15 nM

Reference: patent US12448394B2, “Heterocyclic pyrazole derivatives as type III receptor tyrosine kinase inhibitors” (DEVELOPMENT CENTER FOR BIOTECHNOLOGY, priority 2019, dated 2025)
